# Data reported in ChEMBL document CHEMBL1759870, “Identification, structural properties and chelating capacity of miltipolone as a broad-spectrum inhibitor to cancer cells” (Eur J Med Chem, 2011).
# The source made the active and inactive calls. No cut-off for these calls is given here.
# What was measured:
# [1] = test system: MCF7; assay: Antiproliferative activity against human MCF7 cells at 2 uM after 96 hrs by MTT assay in presence of ferric ion; type: functional, cell-based
# [2] = Metal chelating activity of the compound assessed as ferric ion complex formation in doble-distiled water by UV-vis spectrometry; type: functional
# [3] = test system: A549; assay: Antiproliferative activity against human A549 cells at 2 uM after 96 hrs by MTT assay in presence of manganese ion; type: functional, cell-based
# [4] = test system: HepG2; assay: Antiproliferative activity against human HepG2 cells at 2 uM after 96 hrs by MTT assay in presence of zinc ion; type: functional, cell-based
# [5] = Metal chelating activity of the compound assessed as cobalt complex formation in doble-distiled water by UV-vis spectrometry; type: functional
# [6] = test system: NCI-N87; assay: Antiproliferative activity against human NCI-N87 cells after 96 hrs by MTT assay; type: functional, cell-based; conditions: NCI-N87, 96 h
# [7] = Metal chelating activity of the compound assessed as ferrous ion complex formation in doble-distiled water by UV-vis spectrometry; type: functional
# [8] = test system: HeLa; assay: Antiproliferative activity against human HeLa cells at 2 uM after 96 hrs by MTT assay in presence of ferric ion; type: functional, cell-based
# [9] = test system: HepG2; assay: Antiproliferative activity against human HepG2 cells after 96 hrs by MTT assay; type: functional, cell-based; conditions: HepG2, 96 h
# [10] = test system: Bel-7402; assay: Antiproliferative activity against human Bel7402 cells at 2 uM after 96 hrs by MTT assay in presence of 1 uM of ferrous ion; type: functional, cell-based
# [11] = test system: A-375; assay: Antiproliferative activity against human A375 cells at 2 uM after 96 hrs by MTT assay in presence of zinc ion; type: functional, cell-based
# [12] = test system: Jurkat; assay: Antiproliferative activity against human Jurkat cells at 2 uM after 96 hrs by MTT assay in presence of zinc ion; type: functional, cell-based
# [13] = test system: PANC-1; assay: Antiproliferative activity against human PANC1 cells at 2 uM after 96 hrs by MTT assay in presence of cobalt ion; type: functional, cell-based
# [14] = test system: Jurkat; assay: Antiproliferative activity against human Jurkat cells after 96 hrs by MTT assay; type: functional, cell-based
# [15] = test system: A549; assay: Antiproliferative activity against human A549 cells at 2 uM after 96 hrs by MTT assay in presence of zinc ion; type: functional, cell-based
# [16] = test system: Bel-7402; assay: Antiproliferative activity against human Bel7402 cells at 2 uM after 96 hrs by MTT assay in presence of ferric ion; type: functional, cell-based
# [17] = test system: HeLa; assay: Antiproliferative activity against human HeLa cells at 2 uM after 96 hrs by MTT assay in presence of zinc ion; type: functional, cell-based
# [18] = test system: Jurkat; assay: Antiproliferative activity against human Jurkat cells at 2 uM after 96 hrs by MTT assay in presence of 1 uM of ferrous ion; type: functional, cell-based
# [19] = test system: Jurkat; assay: Antiproliferative activity against human Jurkat cells at 2 uM after 96 hrs by MTT assay in presence of cobalt ion; type: functional, cell-based
# [20] = test system: A549; assay: Antiproliferative activity against human A549 cells at 2 uM after 96 hrs by MTT assay in presence of 1 uM of ferrous ion; type: functional, cell-based
# [21] = test system: Bel-7402; assay: Antiproliferative activity against human Bel7402 cells at 2 uM after 96 hrs by MTT assay in presence of cobalt ion; type: functional, cell-based
# [22] = test system: PANC-1; assay: Antiproliferative activity against human PANC1 cells at 2 uM after 96 hrs by MTT assay in presence of ferrous ion; type: functional, cell-based
# [23] = test system: HepG2; assay: Antiproliferative activity against human HepG2 cells at 2 uM after 96 hrs by MTT assay in presence of cobalt ion; type: functional, cell-based
# [24] = test system: HT-1080; assay: Antiproliferative activity against human HT1080 cells at 2 uM after 96 hrs by MTT assay in presence of ferric ion; type: functional, cell-based
# [25] = test system: Jurkat; assay: Antiproliferative activity against human Jurkat cells at 2 uM after 96 hrs by MTT assay in presence of ferrous ion; type: functional, cell-based
# [26] = test system: PANC-1; assay: Antiproliferative activity against human PANC1 cells at 2 uM after 96 hrs by MTT assay in presence of 1 uM of ferrous ion; type: functional, cell-based
# [27] = test system: Jurkat; assay: Antiproliferative activity against human Jurkat cells at 2 uM after 96 hrs by MTT assay in presence of ferric ion; type: functional, cell-based
# [28] = test system: HepG2; assay: Antiproliferative activity against human HepG2 cells at 2 uM after 96 hrs by MTT assay in presence of ferric ion; type: functional, cell-based
# [29] = test system: MCF7; assay: Antiproliferative activity against human MCF7 cells after 96 hrs by MTT assay; type: functional, cell-based; conditions: MCF7, 96 h
# [30] = test system: NCI-N87; assay: Antiproliferative activity against human NCI-N87 cells at 2 uM after 96 hrs by MTT assay in presence of cobalt ion; type: functional, cell-based
# [31] = test system: NCI-N87; assay: Antiproliferative activity against human NCI-N87 cells at 2 uM after 96 hrs by MTT assay in presence of ferric ion; type: functional, cell-based
# [32] = test system: PANC-1; assay: Antiproliferative activity against human PANC1 cells at 2 uM after 96 hrs by MTT assay in presence of manganese ion; type: functional, cell-based
# [33] = test system: HeLa; assay: Antiproliferative activity against human HeLa cells after 96 hrs by MTT assay; type: functional, cell-based
# [34] = test system: A549; assay: Antiproliferative activity against human A549 cells at 2 uM after 96 hrs by MTT assay in presence of ferrous ion; type: functional, cell-based
# [35] = test system: PANC-1; assay: Antiproliferative activity against human PANC1 cells after 96 hrs by MTT assay; type: functional, cell-based; conditions: PANC-1, 96 h
# [36] = test system: A549; assay: Antiproliferative activity against human A549 cells at 2 uM after 96 hrs by MTT assay in presence of cobalt ion; type: functional, cell-based
# [37] = test system: A-375; assay: Antiproliferative activity against human A375 cells at 2 uM after 96 hrs by MTT assay in presence of ferric ion; type: functional, cell-based
# [38] = test system: HT-1080; assay: Antiproliferative activity against human HT1080 cells at 2 uM after 96 hrs by MTT assay in presence of ferrous ion; type: functional, cell-based
smiles,measurement,setting,value
Cc1cc2c(cc(O)c1=O)[C@@]13CCCC(C)(C)[C@@H]1C[C@@H]2OC3 [MILTIPOLONE],Activity,[1],Active
same,Activity,[2],Active
same,Activity,[3],Active
same,Activity,[4],Active
same,Activity,[5],Active
same,IC50,[6],1.6 µM
same,Activity,[7],Active
same,Activity,[8],Active
same,IC50,[9],2 µM
same,Activity,[10],Active
same,Activity,[11],Active
same,Activity,[12],Active
same,Activity,[13],Active
same,IC50,[14],1.4 µM
same,Activity,[15],Active
same,Activity,[16],Active
same,Activity,[17],Active
same,Activity,[18],inactive
same,Activity,[19],Active
same,Activity,[20],inactive
same,Activity,[21],Active
same,Activity,[22],inactive
same,Activity,[23],Active
same,Activity,[24],Active
same,Activity,[25],inactive
same,Activity,[26],inactive
same,Activity,[27],Active
same,Activity,[28],Active
same,IC50,[29],2 µM
same,Activity,[30],Active
same,Activity,[31],Active
same,Activity,[32],Active
same,IC50,[33],1.44 µM
same,Activity,[34],inactive
same,IC50,[35],5.95 µM
same,Activity,[36],Active
same,Activity,[37],Active
same,Activity,[38],inactive
